Several values for one entry are separate records, joined by “and”; a condition that tells them apart may be missing. Identical values can stand only once. Like-named read-outs stand apart in the source and are kept apart here.
Legend:
[1] = system: HIV-1; conditions: for p24: day 4 supernatant; for Mean Syncytial Counts Day 3 % / Mean Syncytial Counts Day 4 %: % of virus control; for Mean Syncytial Counts Day 4 %: 5760 min
Experimental: (§1) JM cells were infected with HIV-1 for 2 hours at room temperature. The cells were then washed and distributed into duplicate wells containing different concentrations of the test compound and incubated at 37°C. On days 3 and 4 the cells were observed and the syncytia counted and on day 4 the supernatant fluid was also harvested for detection of p24 viral core antigen using the Abbott EIA.

[2] = system: HIV-1; assay: microbe, parasite or virus in culture
Experimental: as §1

[3] = system: Herpes type 2 strain HG52; assay: Herpes type 2 plaque reduction assay (Vero cells); format: cell-based; conditions: for %: % of virus control
Description: Cell Line: Vero Virus: Herpes type 2 strain HG52

[4] = system: CMV; assay: Anti-CMV plaque reduction assay (AD169 strain, MRC 5 cell line); format: cell-based, cytomegalovirus (CMV); conditions: for %: % of virus control
Experimental: Experiments were carried out whereby phosphorylated hesperidin was present at the following times of the virus (AD169 strain, MRC 5 cell line) growth cycle. • 1. During adsorption and after • 2. During adsorption, then not • 3. Only added after adsorption A virus control with no drug was present on each plate.

[5] = Human immunodeficiency virus 1, 72 h, read-out: Mean Syncytial Counts Day 3 %
[6] = Human immunodeficiency virus 1, 96 h, read-out: Mean Syncytial Counts Day 4 %
[7] = First trial, during adsorption and incubation, 10 µg/ml
[8] = First trial, during adsorption and incubation, 50 µg/ml
[9] = First trial, during adsorption and incubation, 100 µg/ml
[10] = First trial, during adsorption, 10 µg/ml
[11] = First trial, during adsorption, 50 µg/ml
[12] = First trial, during adsorption, 100 µg/ml
[13] = Second trial, during adsorption and incubation, 125 µg/ml
[14] = Second trial, during adsorption and incubation, 250 µg/ml
[15] = Second trial, during adsorption and incubation, 500 µg/ml
[16] = Second trial, during adsorption, 500 µg/ml
[17] = Second trial, incubation only, 125 µg/ml
[18] = Second trial, incubation only, 250 µg/ml
[19] = Second trial, incubation only, 500 µg/ml
[20] = First trial, added before and after adsorption, 31 µg/ml
[21] = Second trial, during and after adsorption, 31 µg/ml
[22] = Second trial, during and after adsorption, 62 µg/ml
[23] = Third trial, after adsorption only, 3.75 µg/ml
[24] = Third trial, after adsorption only, 7.5 µg/ml
[25] = Third trial, after adsorption only, 15 µg/ml
[26] = Third trial, after adsorption only, 31µg/ml
[27] = Third trial, after adsorption only, 62 µg/ml
[28] = Third trial, during adsorption only, 3.75 µg/ml
[29] = Third trial, during adsorption only, 7.5 µg/ml
[30] = Third trial, during adsorption only, 15 µg/ml
[31] = Third trial, during adsorption only, 31µg/ml
[32] = Third trial, during and after adsorption, 3.75 µg/ml
[33] = Third trial, during and after adsorption, 7.5 µg/ml
[34] = Third trial, during and after adsorption, 15 µg/ml
[35] = Third trial, during and after adsorption, 31µg/ml
[36] = Third trial, during and after adsorption, 62 µg/ml

In the case of `Nc1ccn([C@H]2CC[C@@H](CO)O2)c(=O)n1` [ddC, reference compound], the “Mean Syncytial Counts Day 3” value ([1]; Conc 0.1 µM) is reported as 21, the “Mean Syncytial Counts Day 4” value ([1]; Conc 0.1 µM) is reported as 31 and the “Mean Syncytial Counts Day 3” value ([1]; Conc 0.3 µM) is reported as 0. For the same molecule, the “Mean Syncytial Counts Day 4” value ([1]; Conc 0.3 µM) was 6, the “p24” value ([1]; Conc 0.3 µM) was 341 pg/mL and the “Mean Syncytial Counts Day 3” value ([1]; Conc 1 µM) was 0. The “Mean Syncytial Counts Day 4” value ([1]; Conc 1 µM) was 0, the “p24” value ([1]; Conc 1 µM) was 199 pg/mL and the “Mean Syncytial Counts Day 3” value ([1]; Conc 3 µM) was 0. For the same molecule, the “Mean Syncytial Counts Day 4” value ([1]; Conc 3 µM) was 0, the “p24” value ([1]; Conc 3 µM) was 98 pg/mL and the “Mean Syncytial Counts Day 3” value ([1]; Conc 10 µM) was 0. For the same molecule, the “Mean Syncytial Counts Day 4” value ([1]; Conc 10 µM) was 0, the “p24” value ([1]; Conc 10 µM) was 132 pg/mL and the activity at 0.1 µM [2, 5] was 37%. It also gave an activity at 0.3 µM [2, 5] of 0%, an activity at 1 µM [2, 5] of 0% and an activity at 3 µM [2, 5] of 0%. It also gave an activity at 10 µM [2, 5] of 0%, an activity at 0.1 µM [2, 6] of 37% and an activity at 0.3 µM [2, 6] of 7%. It also gave an activity at 1 µM [2, 6] of 0%, an activity at 3 µM [2, 6] of 0% and an activity at 10 µM [2, 6] of 0%.

Phosphorylated Hesperidin was tested, and the “Mean Syncytial Counts Day 3 %” value ([1]; Conc 0.1 µg/ml, 4320 min) was 100%, the “Mean Syncytial Counts Day 4 %” value ([1]; Conc 0.1 µg/ml) was 100% and the “Mean Syncytial Counts Day 3 %” value ([1]; Conc 0.3 µg/ml, 4320 min) was 100%. For the same molecule, the “Mean Syncytial Counts Day 4 %” value ([1]; Conc 0.3 µg/ml) was 100%, the “Mean Syncytial Counts Day 3 %” value ([1]; Conc 1 µg/ml, 4320 min) was 100% and the “Mean Syncytial Counts Day 4 %” value ([1]; Conc 1 µg/ml) was 100%. The “Mean Syncytial Counts Day 3” value ([1]; Conc 3 µg/ml) was “As VC”, the “Mean Syncytial Counts Day 3 %” value ([1]; Conc 3 µg/ml) was 100% and the “Mean Syncytial Counts Day 4 %” value ([1]; Conc 3 µg/ml) was 100%. For the same molecule, the “Mean Syncytial Counts Day 3” value ([1]; Conc 10 µg/ml) was 51, the “Mean Syncytial Counts Day 4” value ([1]; Conc 10 µg/ml) was “As VC” and the “Mean Syncytial Counts Day 3 %” value ([1]; Conc 10 µg/ml, 4320 min) was 89%. For the same molecule, the “Mean Syncytial Counts Day 4 %” value ([1]; Conc 10 µg/ml) was 100%, the “Mean Syncytial Counts Day 3” value ([1]; Conc 30 µg/ml) was 9 and the “Mean Syncytial Counts Day 4” value ([1]; Conc 30 µg/ml) was 45. The “Mean Syncytial Counts Day 3 %” value ([1]; Conc 30 µg/ml, 4320 min) was 16%, the “Mean Syncytial Counts Day 4 %” value ([1]; Conc 30 µg/ml) was 48% and the “Mean Syncytial Counts Day 3” value ([1]; Conc 100 µg/ml) was 0. The “Mean Syncytial Counts Day 4” value ([1]; Conc 100 µg/ml) was 5, the “Mean Syncytial Counts Day 3 %” value ([1]; Conc 100 µg/ml, 4320 min) was 0% and the “Mean Syncytial Counts Day 4 %” value ([1]; Conc 100 µg/ml) was 5%. The “No. of Plaques” value [3, 7] was 253 and 243, the “No. of Plaques Average” value [3, 7] was 248 and the “%” value [3, 7] was 100%. For the same molecule, the “No. of Plaques” value [3, 8] was 112 and 132, the “No. of Plaques Average” value [3, 8] was 122 and the “%” value [3, 8] was 54%. The “No. of Plaques” value [3, 9] was 95 and 62, the “No. of Plaques Average” value [3, 9] was 78.5 and the “%” value [3, 9] was 35%. For the same molecule, the “No. of Plaques” value [3, 10] was 211 and 231, the “No. of Plaques Average” value [3, 10] was 221 and the “%” value [3, 10] was 98%. The “No. of Plaques” value [3, 11] was 154 and 146, the “No. of Plaques Average” value [3, 11] was 150 and the “%” value [3, 11] was 66%. The “No. of Plaques” value [3, 12] was 187 and 144, the “No. of Plaques Average” value [3, 12] was 166 and the “%” value [3, 12] was 73%. The “No. of Plaques” value [3, 13] was 58 and 71, the “No. of Plaques Average” value [3, 13] was 64.5 and the “%” value [3, 13] was 46%. The “No. of Plaques” value [3, 14] was 11 and 10, the “No. of Plaques Average” value [3, 14] was 10.5 and the “%” value [3, 14] was 7.5%. The “No. of Plaques” value [3, 15] was “None”, the “No. of Plaques Average” value [3, 15] was 0 and the “%” value [3, 15] was 0%. For the same molecule, the “No. of Plaques” value [3, 16] was 50 and 58, the “No. of Plaques Average” value [3, 16] was 54 and the “%” value [3, 16] was 38%. For the same molecule, the “No. of Plaques” value [3, 17] was 50 and 61, the “No. of Plaques Average” value [3, 17] was 55.5 and the “%” value [3, 17] was 39%. The “No. of Plaques” value [3, 18] was 16 and 11, the “No. of Plaques Average” value [3, 18] was 13.5 and the “%” value [3, 18] was 9.6%. The “No. of Plaques” value [3, 19] was “None”, the “No. of Plaques Average” value [3, 19] was 0 and the “%” value [3, 19] was 0%. The “No. of Plaques” value [4, 20] was 27 and 20 and 24, the “No. of Plaques Average” value [4, 20] was 24 and the “%” value [4, 20] was 9.9%. The “No. of Plaques” value ([4]; First trial, added before and after adsorption, 125 µg/ml) was “No plaques”, the “No. of Plaques” value ([4]; First trial, added before and after adsorption, 250 µg/ml) was “totally blocked” and the “No. of Plaques” value ([4]; Second trial, after adsorption only, 31 µg/m) was “As virus control”. For the same molecule, the “No. of Plaques” value ([4]; Second trial, after adsorption only, 62 µg/ml) was “As virus control”, the “No. of Plaques” value ([4]; Second trial, after adsorption only, 125 µg/ml) was “As virus control” and the “No. of Plaques” value ([4]; Second trial, after adsorption only, 250 µg/ml) was “None”. The “No. of Plaques” value ([4]; Second trial, after adsorption only, 500 µg/ml) was “None”, the “No. of Plaques” value [4, 21] was 35 and 40 and the “No. of Plaques Average” value [4, 21] was 32.5. The “%” value [4, 21] was 17%, the “No. of Plaques” value [4, 22] was 35 and 40 and the “No. of Plaques Average” value [4, 22] was 37.5. The “%” value [4, 22] was 22%, the “No. of Plaques” value ([4]; Second trial, during and after adsorption, 125 µg/ml, estimate) was ~40 (estimate) and the “No. of Plaques” value ([4]; Second trial, during and after adsorption, 250 µg/ml) was “None”. For the same molecule, the “No. of Plaques” value ([4]; Second trial, during and after adsorption, 500 µg/ml) was “None”, the “No. of Plaques” value [4, 23] was “As v.c” and the “%” value [4, 23] was 100%. For the same molecule, the “No. of Plaques” value [4, 24] was “As v.c”, the “%” value [4, 24] was 100% and the “No. of Plaques” value [4, 25] was 120 125 131. The “No. of Plaques Average” value [4, 25] was 125, the “plaque size (remark in No. of Plaques cell)” value [4, 25] was “much smaller plaques” and the “%” value [4, 25] was 66%. The “No. of Plaques” value [4, 26] was 119 125 128, the “No. of Plaques Average” value [4, 26] was 124 and the “%” value [4, 26] was 65%. The “No. of Plaques Average” value [4, 27] was 89, the “plaque size (remark in No. of Plaques cell)” value [4, 27] was “smaller plaques” and the “%” value [4, 27] was 47%. For the same molecule, the “No. of Plaques” value [4, 28] was “As v.c”, the “%” value [4, 28] was 100% and the “No. of Plaques” value [4, 29] was “As v.c”. The “No. of Plaques Average” value [4, 29] was 141, the “%” value [4, 29] was 100% and the “No. of Plaques” value [4, 30] was 148 140 135. The “%” value [4, 30] was 74%, the “No. of Plaques” value [4, 31] was 120 115 111 and the “No. of Plaques Average” value [4, 31] was 115. The “plaque size (remark in No. of Plaques cell)” value [4, 31] was “much smaller plaques”, the “%” value [4, 31] was 61% and the “state of monolayer (printed in place of No. of Plaques)” value ([4]; Third trial, during adsorption only, 62 µg/ml, MRC 5 cell line) was “monolayer destroyed”. For the same molecule, the “No. of Plaques” value [4, 32] was 128 125 121, the “No. of Plaques Average” value [4, 32] was 125 and the “%” value [4, 32] was 66%. For the same molecule, the “No. of Plaques” value [4, 33] was 119 115 103, the “No. of Plaques Average” value [4, 33] was 122 and the “%” value [4, 33] was 64%. The “No. of Plaques Average” value [4, 34] was 76, the “%” value [4, 34] was 40% and the “No. of Plaques Average” value [4, 35] was 60. The “%” value [4, 35] was 32%, the “No. of Plaques Average” value [4, 36] was 48 and the “%” value [4, 36] was 25%.

Reference: patent publication EP0543555A1, “Phosphorylated flavanoids in the treatment of viral diseases” (MERRELL DOW PHARMACEUTICALS INC., priority 1991, dated 1993)
